Results published in ChEMBL document CHEMBL3046815, “Evaluation of fungicides for the management of Botryosphaeria dieback diseases of grapevines” (Pest Manag Sci, 2012).

Tests used:
Neofusicoccum australe [1] = assay: Fungicidal activity against Neofusicoccum australe J-3 assessed as mycelial growth inhibition after 48 hr; format: functional, organism-based; settings: pooled result: one value given for 3 cell lines, strains, targets or settings
Neofusicoccum luteum [2] = assay: Fungicidal activity against Neofusicoccum luteum N(12)2 assessed as mycelial growth inhibition after 48 hr; format: functional, organism-based; settings: pooled result: one value given for 3 cell lines, strains, targets or settings
Diplodia mutila [3] = assay: Fungicidal activity against Diplodia mutila Q assessed as mycelial growth inhibition after 48 hr; format: functional, organism-based; settings: pooled result: one value given for 3 cell lines, strains, targets or settings
Diplodia mutila [4] = assay: Fungicidal activity against Diplodia mutila Q assessed as conidial germination inhibition after 48 hr; format: functional, organism-based; settings: pooled result: one value given for 3 cell lines, strains, targets or settings
Neofusicoccum luteum [5] = assay: Fungicidal activity against Neofusicoccum luteum N(12)2 assessed as conidial germination inhibition after 48 hr; format: functional, organism-based; settings: pooled result: one value given for 3 cell lines, strains, targets or settings
Neofusicoccum australe [6] = assay: Fungicidal activity against Neofusicoccum australe J-3 assessed as conidial germination inhibition after 48 hr; format: functional, organism-based; settings: pooled result: one value given for 3 cell lines, strains, targets or settings
Neofusicoccum luteum [7] = assay: Fungicidal activity against Neofusicoccum luteum infected Pinot noir grapevine assessed as pathogen incidence at area beyond node compound applied 24 hr prior inoculation to pruning wound measured after 1 year; format: functional; design: concentration or dose not given beside the values
Neofusicoccum luteum [8] = assay: Fungicidal activity against Neofusicoccum luteum infected Pinot noir grapevine assessed as non-lesion areas compound applied 24 hr prior inoculation to pruning wound measured after 1 year; format: functional; design: concentration or dose not given beside the values
Neofusicoccum luteum [9] = assay: Fungicidal activity against Neofusicoccum luteum infected Pinot noir grapevine assessed as mean pathogen compound applied 24 hr prior inoculation to pruning wound measured after 1 year; format: functional; design: concentration or dose not given beside the values
Neofusicoccum luteum [10] = assay: Fungicidal activity against Neofusicoccum luteum infected Pinot noir grapevine assessed as pathogen incidence at closest side shoot compound applied 24 hr prior inoculation to pruning wound measured after 6 months; format: functional; design: concentration or dose not given beside the values
Neofusicoccum luteum [11] = assay: Fungicidal activity against Neofusicoccum luteum infected Pinot noir grapevine assessed as pathogen incidence at 45 g AI /100 L applied 24 hr prior inoculation to pruning wound measured after 3 months; format: functional
Neofusicoccum luteum [12] = assay: Fungicidal activity against Neofusicoccum luteum infected Pinot noir grapevine assessed as pathogen incidence at dieback edges compound applied 24 hr prior inoculation to pruning wound measured after 1 year; format: functional; design: concentration or dose not given beside the values
Neofusicoccum luteum [13] = assay: Fungicidal activity against Neofusicoccum luteum infected Pinot noir grapevine assessed as dieback lesion length at 45 g AI /100 L applied 24 hr prior inoculation to pruning wound measured after 3 months; format: functional
Neofusicoccum luteum [14] = assay: Fungicidal activity against Neofusicoccum luteum infected Pinot noir grapevine assessed as pathogen incidence at dieback sites compound applied 24 hr prior inoculation to pruning wound measured after 1 year; format: functional; design: concentration or dose not given beside the values
Neofusicoccum luteum [15] = assay: Fungicidal activity against Neofusicoccum luteum infected Pinot noir grapevine assessed as pathogen incidence at 50 g AI /100 L applied 24 hr prior inoculation to pruning wound measured after 3 months; format: functional
Neofusicoccum luteum [16] = assay: Fungicidal activity against Neofusicoccum luteum infected Pinot noir grapevine assessed as dieback lesion length at 50 g AI /100 L applied 24 hr prior inoculation to pruning wound measured after 3 months; format: functional
Neofusicoccum luteum [17] = assay: Fungicidal activity against Neofusicoccum luteum infected Pinot noir grapevine assessed as dieback lesion length at 80 g AI /100 L applied 24 hr prior inoculation to pruning wound measured after 3 months; format: functional, organism-based
Neofusicoccum luteum [18] = assay: Fungicidal activity against Neofusicoccum luteum infected Pinot noir grapevine assessed as pathogen incidence at 80 g AI /100 L applied 24 hr prior inoculation to pruning wound measured after 3 months; format: functional, organism-based
Neofusicoccum luteum [19] = assay: Fungicidal activity against Neofusicoccum luteum infected Pinot noir grapevine assessed as pathogen incidence at 39 g AI /100 L applied 24 hr prior inoculation to pruning wound measured after 3 months; format: functional
Neofusicoccum luteum [20] = assay: Fungicidal activity against Neofusicoccum luteum infected Pinot noir grapevine assessed as dieback lesion length at 39 g AI /100 L applied 24 hr prior inoculation to pruning wound measured after 3 months; format: functional
Neofusicoccum luteum [21] = assay: Fungicidal activity against Neofusicoccum luteum infected Pinot noir grapevine assessed as dieback lesion length at 32 g AI /100 L applied 24 hr prior inoculation to pruning wound measured after 3 months; format: functional
Neofusicoccum luteum [22] = assay: Fungicidal activity against Neofusicoccum luteum infected Pinot noir grapevine assessed as pathogen incidence at 32 g AI /100 L applied 24 hr prior inoculation to pruning wound measured after 3 months; format: functional

Molecule	EC50 (Neofusicoccum australe [1]) [mgAi/L]	EC50 (Neofusicoccum luteum [2]) [mgAi/L]	EC50 (Diplodia mutila [3]) [mgAi/L]	EC50 (Diplodia mutila [4]) [mgAi/L]	EC50 (Neofusicoccum luteum [5]) [mgAi/L]	EC50 (Neofusicoccum australe [6]) [mgAi/L]	Activity (Neofusicoccum luteum [7]) [%]	Activity (Neofusicoccum luteum [8]) [%]	Activity (Neofusicoccum luteum [9]) [%]	Activity (Neofusicoccum luteum [10]) [%]	Activity (Neofusicoccum luteum [12]) [%]	Activity (Neofusicoccum luteum [14]) [%]	also measured
COCC(=O)N(c1c(C)cccc1C)C(C)C(=O)OC (centres undefined) [METALAXYL]	102.6	188	61.995	45.72	218.01	113.11							
CCCN(CCOc1c(Cl)cc(Cl)cc1Cl)C(=O)n1ccnc1 [PROCHLORAZ]	0.098	0.054	0.001	22.97	46.86	13.23	0	40	43	13	67	97	Activity (Neofusicoccum luteum [11]): 70%; Activity (Neofusicoccum luteum [13]): 60.5 mm
CC(C)NC(=O)N1CC(=O)N(c2cc(Cl)cc(Cl)c2)C1=O [IPRODIONE]	0.273	0.314	0.247	0.03	0.04	0.05	0	30	34	3	53	83	Activity (Neofusicoccum luteum [15]): 0%; Activity (Neofusicoccum luteum [16]): 39.9 mm
COPPER HYDROXIDE [listing 1 of 2 here]													Activity (Neofusicoccum luteum [17]): 41.9 mm; Activity (Neofusicoccum luteum [18]): 20%
N#Cc1sc2c(=O)c3ccccc3c(=O)c=2sc1C#N [DITHIANON]	58.897	73.41	44.87	11.39	19.11	19.1							Activity (Neofusicoccum luteum [19]): 30%; Activity (Neofusicoccum luteum [20]): 49.6 mm
COPPER HYDROXIDE [listing 2 of 2 here]	106.83	77.437	68.64	4.16	8.7	5.68							
CC(C)(C)C(O)(CCc1ccc(Cl)cc1)Cn1cncn1 (centres undefined) [TEBUCONAZOLE]	0.098	0.076	0.01	0.6	6.23	3.38	0	13	16	3	27	37	Activity (Neofusicoccum luteum [21]): 50.2 mm; Activity (Neofusicoccum luteum [22]): 20%
